Values joined by “and” are separate entries in the source; they are usually repeats but may differ in a detail not shown here. Equal entries are not always repeated. “Also recorded” adds a separate entry of the source. Where two headings read alike, the source gives them in different places. Each block holds one molecule with its values, some of them ahead of it.
Experiments:
hCA I = hCA I (Homo sapiens, UniProt P00915); assay: stopped-flow CO2 hydration inhibition assay; assay type: biochemical
hCA II = hCA II (Homo sapiens, UniProt P00918); assay: stopped-flow CO2 hydration inhibition assay; assay type: biochemical
hCA IX = hCA IX (Homo sapiens, UniProt Q16790); assay: biochemical; assay type: biochemical
hCA XII = hCA XII (Homo sapiens, UniProt O43570); assay: biochemical
SR = assay: NCI-60 SRB screen; assay type: cell-based, human; conditions: five-dose, 48 h
hCA I, II, IX, and XII = assay: stopped-flow CO2 hydration inhibition assay, across the four isoforms; assay type: biochemical, human
HEK293T cells [1] = conditions: for selectivity against colorectal carcinoma HCT116 cells: HEK293T IC50 versus HCT116 GI50; for average cancer cell fold selectivity: HEK293T IC50 versus average NCI-60 GI50; for IC50: read-out: IC50 (μM ± SD) normal HEK293T cells, MTT, 48 h, triplicate; for cancer cell selectivity compared to non-cancerous HEK293T cells: up to
HEK293T cells [2] = assay: cells; conditions: Homo sapiens, HEK-293T, 48 h, read-out: IC50 (μM ± SD) normal HEK293T cells, MTT, 48 h, triplicate
hypoxic HCT116 cells = assay: cells; conditions: Homo sapiens, HCT-116, 48 h, read-out: Cytotoxicity IC50 (μM ± SD) HCT116
hypoxic U251 cells = assay: cells; conditions: Homo sapiens, U-251, 48 h, read-out: Cytotoxicity IC50 (μM ± SD) U251
hypoxic LOX IMVI cells = assay: cells; conditions: Homo sapiens, 48 h, read-out: Cytotoxicity IC50 (μM ± SD) LOX IMVI
recombinant Pim-1 kinase [3] = biological target: T1, recombinant Pim-1 kinase (Homo sapiens, UniProt P11309); assay: biochemical; conditions: Pim-1 kinase IC50 (μM ± SD), ADP-Glo
K-562 = assay: NCI-60 SRB screen; assay type: cell-based; conditions: Homo sapiens, K562, 48 h
HCT116 cells [4] = assay: cell cycle analysis by propidium iodide flow cytometry; assay type: cell-based, human; conditions: HCT116, 2.94 μM, 24 h
HCT116 cells [5] = assay: Annexin V-FITC/PI apoptosis assay; assay type: cell-based, human; conditions: HCT116, 2.94 μM, 24 h
[6] = test system: ROS level in HCT116 cells; assay: reactive oxygen species fluorometric assay; assay type: cell-based, human; conditions: HCT116, 2.94 μM
[7] = test system: Nrf2 in HCT116 cell nuclei; assay: Nrf2 transcription factor ELISA on nuclear protein; assay type: cell-based, human
recombinant Pim-1 kinase [8] = biological target: T1, recombinant Pim-1 kinase
HCT15 = assay: NCI-60 SRB screen; assay type: cell-based; conditions: Homo sapiens, HCT-15, 48 h

hCA I, sequence (P00915 whole entry): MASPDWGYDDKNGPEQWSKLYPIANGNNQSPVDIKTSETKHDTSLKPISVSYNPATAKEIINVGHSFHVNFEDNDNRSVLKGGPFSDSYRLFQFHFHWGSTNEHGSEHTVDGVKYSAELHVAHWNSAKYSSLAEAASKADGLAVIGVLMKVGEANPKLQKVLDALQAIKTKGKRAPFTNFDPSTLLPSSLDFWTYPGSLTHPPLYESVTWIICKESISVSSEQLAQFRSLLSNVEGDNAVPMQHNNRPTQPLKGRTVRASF
T1 sequence (P11309 whole entry): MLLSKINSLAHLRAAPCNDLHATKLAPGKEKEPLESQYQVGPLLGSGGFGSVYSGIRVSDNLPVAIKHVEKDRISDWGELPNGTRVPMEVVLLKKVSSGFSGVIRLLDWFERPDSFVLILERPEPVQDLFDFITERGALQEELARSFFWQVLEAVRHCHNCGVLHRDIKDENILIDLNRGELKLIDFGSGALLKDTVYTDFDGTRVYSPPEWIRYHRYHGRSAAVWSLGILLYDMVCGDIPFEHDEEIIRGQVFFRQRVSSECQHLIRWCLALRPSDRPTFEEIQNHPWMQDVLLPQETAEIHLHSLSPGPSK
hCA XII, sequence (O43570 25-354): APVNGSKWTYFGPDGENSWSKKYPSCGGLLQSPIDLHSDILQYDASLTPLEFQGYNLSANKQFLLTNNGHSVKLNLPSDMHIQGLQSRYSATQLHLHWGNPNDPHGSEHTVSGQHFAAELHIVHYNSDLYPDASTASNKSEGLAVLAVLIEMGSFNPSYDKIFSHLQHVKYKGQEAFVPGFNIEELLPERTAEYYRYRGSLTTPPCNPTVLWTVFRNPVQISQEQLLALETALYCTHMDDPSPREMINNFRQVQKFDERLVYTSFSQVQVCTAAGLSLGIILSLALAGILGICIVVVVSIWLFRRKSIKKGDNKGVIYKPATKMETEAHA

Structure (SMILES): COc1ccc(C(=O)/C=C/c2ccccc2Cl)cc1S(N)(=O)=O [4a, 5-[(2E)-3-(2-Chlorophenyl)prop-2-enoyl]-2-methoxybenzene-1-sulfonamide]
Ki (hCA I): > 10 µM
Ki (hCA II): > 10 µM
Ki (hCA IX): > 10 µM
Ki (hCA XII): > 10 µM

Structure (SMILES): COc1ccc(C(=O)/C=C/c2cccc(Cl)c2)cc1S(N)(=O)=O [4b, 5-[(2E)-3-(3-Chlorophenyl)prop-2-enoyl]-2-methoxybenzene-1-sulfonamide]
GI50 (SR): sub-micromolar
Ki (hCA I): > 10 µM
Ki (hCA II): > 10 µM
Ki (hCA IX): > 10 µM
Ki (hCA XII): > 10 µM

Structure (SMILES): COc1ccc(C(=O)/C=C/c2ccccc2Br)cc1S(N)(=O)=O [4c, 5-[(2E)-3-(2-Bromophenyl)prop-2-enoyl]-2-methoxybenzene-1-sulfonamide]
Ki (hCA I): > 10 µM
Ki (hCA II): > 10 µM
Ki (hCA IX): 4.71 µM
Ki (hCA XII): > 10 µM

Structure (SMILES): COc1ccc(C(=O)/C=C/c2cccc(Br)c2)cc1S(N)(=O)=O [4d, 5-[(2E)-3-(3-Bromophenyl)prop-2-enoyl]-2-methoxybenzene-1-sulfonamide]
GI50 (SR): sub-micromolar
Ki (hCA I): 0.85 µM
Ki (hCA II): 0.5 µM
selectivity toward hCA I and hCA II over hCA IX and hCA XII (hCA I, II, IX, and XII): ca. 10 fold
Ki (hCA I, II, IX, and XII; read-out: average Ki value against the four tested isoforms, hCA I, II, IX, XII): 4 µM
selectivity against colorectal carcinoma HCT116 cells (HEK293T cells [1]): ca. 50 fold
average cancer cell fold selectivity (HEK293T cells [1]): ca. 20 fold
IC50 (HEK293T cells [1]): 52.7 ± 2.03 µM
cancer cell selectivity compared to non-cancerous HEK293T cells (HEK293T cells [1]): up to 50 fold
IC50 (HEK293T cells [2]): ~53 µM
IC50 (hypoxic HCT116 cells): 6.32 ± 0.38 µM
IC50 (hypoxic U251 cells): 14.8 ± 0.61 µM
IC50 (hypoxic LOX IMVI cells): 38.3 ± 1.63 µM
IC50 (recombinant Pim-1 kinase [3]): ~1.06 µM and 1.06 µM

Structure (SMILES): COc1ccccc1/C=C/C(=O)c1ccc(OC)c(S(N)(=O)=O)c1 [4e, 2-Methoxy-5-[(2E)-3-(2-methoxyphenyl)prop-2-enoyl]benzene-1-sulfonamide]
GI50 (K-562): 350 nM

Structure (SMILES): COc1ccc(C(=O)/C=C/c2ccc(Cl)c(Cl)c2)cc1S(N)(=O)=O [4i, 5-[(2E)-3-(3,4-Dichlorophenyl)prop-2-enoyl]-2-methoxybenzene-1-sulfonamide]
GI50 (SR): sub-micromolar

Structure (SMILES): COc1ccc(C(=O)/C=C/c2cccc3ccccc23)cc1S(N)(=O)=O [4j, 2-Methoxy-5-[(2E)-3-(naphthalen-1-yl)prop-2-enoyl]benzene-1-sulfonamide]
GI50 (SR): sub-micromolar
Ki (hCA I): > 10 µM
Ki (hCA II): > 10 µM
selectivity to hCA IX over hCA I and hCA II / other tested isoforms (hCA IX): ca. six-fold selectivity; also recorded: more than six-fold selective; also recorded: greater than six-fold selectivity
cell cycle arrest phase (HCT116 cells [4]): arrested the cell cycle of HCT116 cells at the G1/S phase; also recorded: arresting cell growth at the G1/S phase
percentage of cells at the G2/M phase (HCT116 cells [4]): 6%
percentage of cells in G1 (G0-G1) phase (HCT116 cells [4]): 52%
percentage of cells in S phase (HCT116 cells [4]): 42%
early apoptosis (HCT116 cells [5]): 8.3%
fold increase of total apoptotic cells versus control (HCT116 cells [5]): 25 fold
late apoptosis (HCT116 cells [5]): 27.8%
total apoptotic cells (HCT116 cells [5]): 39.5%
ROS level increase compared to DMSO-treated cells [6]: ca. 50%
fold increase in transcriptionally active nuclear Nrf2 ([7]; HCT116, 2.94 μM, versus DMSO): ca. 3.3 fold
Nrf2 (ng/mL ± SD) ([7]; HCT116 nuclei, 2.94 μM, control 0.89): 2.92 ng/mL
fold more potent than staurosporine on Pim-1 kinase (recombinant Pim-1 kinase [8]): ca. 1.4 fold
selectivity against colorectal carcinoma HCT116 cells (HEK293T cells [1]): ~15 fold
average cancer cell fold selectivity (HEK293T cells [1]): ~9 fold
IC50 (HEK293T cells [1]): 20.4 ± 0.94 µM
cancer cell selectivity compared to non-cancerous HEK293T cells (HEK293T cells [1]): up to 50 fold
IC50 (HEK293T cells [2]): ~20 µM
IC50 (hypoxic HCT116 cells): 2.94 ± 0.19 µM
IC50 (hypoxic U251 cells): 4.6 ± 0.26 µM
IC50 (hypoxic LOX IMVI cells): 12.1 ± 0.54 µM
IC50 (recombinant Pim-1 kinase [3]): ~0.34 µM and 0.34 µM

Continued, in another order:

Ki (hCA I): > 10 µM
Ki (hCA II): > 10 µM
Ki (hCA IX): > 10 µM
Ki (hCA XII): > 10 µM
Structure (SMILES): COc1ccc(C(=O)/C=C/c2ccc3ccccc3c2)cc1S(N)(=O)=O [4k, 2-Methoxy-5-[(2E)-3-(Naphthalen-2-Yl)Prop-2-Enoyl]Benzene-1-Sulfonamide]
GI50 (SR): sub-micromolar
GI50 (HCT15): 580 nM

Ki (hCA I): > 10 µM
Structure (SMILES): COc1ccc(C(=O)/C=C/c2cc3c(cc2Br)OCO3)cc1S(N)(=O)=O [4l, 5-[(2E)-3-(6-Bromo-2H-1,3-benzodioxol-5-yl)prop-2-enoyl]-2-methoxybenzene-1-sulfonamide]
GI50 (K-562): 450 nM

Ki (hCA I): 2.32 µM
Ki (hCA II): 4.59 µM
Ki (hCA IX): 1.39 µM
Ki (hCA XII): 5.25 µM
Structure (SMILES): COc1ccc(C(C)=O)cc1S(N)(=O)=O [compound 3, 5-acetyl-2-methoxybenzene-1-sulfonamide]

From article PMC9979347 (ACS Omega, 2023)
